Measured values published in patent US9730914B2, “3,5-diaminopyrazole kinase inhibitors” (Axikin Pharmaceuticals, Inc., priority 2014, dated 2017).
pKd: −log10 of the molar value.

Key:
JAK2 = target: T1, JAK2 (Homo sapiens, UniProt O60674); assay: Kinase competition binding assay (Kd, qPCR readout), JAK2; conditions: for pKd: Kd class, JAK2, read-out: JAK2 Activity Level; for RCK:JAK2 selectivity ratio: ratio Kd (JAK2): Kd(RCK)
T1 construct: made in house; host or cells: E. coli BL21-derived host (T7 phage) or HEK-293
Method in brief: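 Competition binding: DNA-tagged kinase (T7 phage or HEK-293-expressed), immobilized biotinylated ligand beads and compound in SeaBlock/PBS/Tween/DTT buffer, 1 hour at room temperature; bound kinase eluted and quantified by qPCR. Kd from 11-point 3-fold dilution, top 30,000 nM typically, final DMSO 1%.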

JAK3 = target: T2, JAK3 (Homo sapiens, UniProt P52333); assay: Kinase competition binding assay (Kd, qPCR readout), JAK3; conditions: for pKd: read-out: JAK3 Activity Level; for RCK:JAK3 selectivity ratio: ratio Kd (JAK3): Kd (RCK)
T2 construct: made in house; host or cells: E. coli BL21-derived host (T7 phage) or HEK-293
Method in brief: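 Competition binding in which kinase, either T7 phage-tagged or HEK-293-expressed and DNA-tagged, was exposed to immobilized biotinylated ligand and test compound for 1 h at room temperature. Bead-bound kinase was eluted and quantified by qPCR. Kd came from 11-point 3-fold dilutions, top concentration 30,000 nM and 1% DMSO, repeated lower if below 0.5 nM.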

[1] = target: T3, kinase domain protein of RC kinase (RCK) (Homo sapiens, UniProt Q56UN5); assay: Kinase competition binding assay (Kd, qPCR readout), RC kinase; conditions: Kd class, read-out: RCK Activity Level
T3 construct: made in house; host or cells: E. coli BL21-derived host (T7 phage) or HEK-293
T3 sequence (Q56UN5 1061-1324 limits assumed): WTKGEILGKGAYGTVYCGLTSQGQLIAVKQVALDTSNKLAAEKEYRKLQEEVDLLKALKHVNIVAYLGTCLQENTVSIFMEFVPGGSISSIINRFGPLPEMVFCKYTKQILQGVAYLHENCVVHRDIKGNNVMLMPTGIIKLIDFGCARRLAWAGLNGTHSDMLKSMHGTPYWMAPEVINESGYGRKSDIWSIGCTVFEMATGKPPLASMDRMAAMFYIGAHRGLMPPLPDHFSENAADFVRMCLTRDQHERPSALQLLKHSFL
Method in brief: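 Competition binding: DNA-tagged kinase (T7 phage or HEK-293-expressed) plus immobilized biotinylated ligand beads and compound, 1 h at room temperature, 1% DMSO. Bead-bound kinase eluted and quantified by qPCR. Kd from 11-point 3-fold dilution, top 30,000 nM, retested lower if below 0.5 nM.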

T1 sequence (O60674 840-1132 limits assumed): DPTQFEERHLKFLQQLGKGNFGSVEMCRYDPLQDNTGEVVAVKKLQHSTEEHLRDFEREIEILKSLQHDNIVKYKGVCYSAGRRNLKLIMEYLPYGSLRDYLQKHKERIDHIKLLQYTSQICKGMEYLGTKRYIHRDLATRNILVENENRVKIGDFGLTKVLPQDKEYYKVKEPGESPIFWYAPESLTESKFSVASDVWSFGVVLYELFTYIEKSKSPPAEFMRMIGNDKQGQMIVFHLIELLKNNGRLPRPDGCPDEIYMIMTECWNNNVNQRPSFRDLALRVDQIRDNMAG
T2 sequence (P52333 811-1124 limits assumed): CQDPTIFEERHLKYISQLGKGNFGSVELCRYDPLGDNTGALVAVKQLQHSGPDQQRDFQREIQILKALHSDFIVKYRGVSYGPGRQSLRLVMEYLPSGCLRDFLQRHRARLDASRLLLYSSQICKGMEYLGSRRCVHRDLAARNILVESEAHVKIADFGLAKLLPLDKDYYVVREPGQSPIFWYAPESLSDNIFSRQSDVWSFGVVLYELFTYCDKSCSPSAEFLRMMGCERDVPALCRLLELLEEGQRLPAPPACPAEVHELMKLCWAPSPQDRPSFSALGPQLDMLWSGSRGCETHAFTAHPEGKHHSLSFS

SMILES | pKd (JAK2) | RCK:JAK2 selectivity ratio (JAK2) | pKd (JAK3; Kd class, JAK3) | pKd [1] | JAK3 Activity Level (JAK3; Kd class, JAK3) | RCK:JAK3 selectivity ratio (JAK3)
NC(=O)c1c(Nc2ccc(N3CCOCC3)cc2)n[nH]c1NCc1ccc(O)cc1 [reference compound] | > 7.30 | D (D represents Kd(JAK2): Kd (RCK)<1) | > 7.30 | > 7.30 |  | C (C represents 1<Kd (JAK3): Kd (RCK)<10)
C[C@@H]1CN(c2ccc(Nc3n[nH]c(NCc4ccc(O)cc4)c3C(N)=O)cc2)C[C@H](C)O1 [reference compound] | > 7.30 | D (D represents Kd(JAK2): Kd (RCK)<1) | > 7.30 | > 7.30 |  | C (C represents 1<Kd (JAK3): Kd (RCK)<10)
NC(=O)c1c(Nc2cnc(N3CCOCC3)c(Cl)c2)n[nH]c1NCc1ccc(O)cc1 [reference compound] | > 7.30 | C (C represents 1<Kd (JAK2): Kd (RCK)<10) | 7.00 to 7.30 | > 7.30 |  | C (C represents 1<Kd (JAK3): Kd (RCK)<10)
CN1CCN(c2ccc(Nc3n[nH]c(NCc4ccc(O)cc4)c3C(N)=O)cc2)CC1 [reference compound] | > 7.30 | C (C represents 1<Kd (JAK2): Kd (RCK)<10) | > 7.30 | > 7.30 |  | C (C represents 1<Kd (JAK3): Kd (RCK)<10)
Cc1cc(Nc2n[nH]c(NCc3ccc(O)cc3)c2C(N)=O)cnc1N1CCN(C(C)C)CC1 [reference compound] | > 7.30 | D (D represents Kd(JAK2): Kd (RCK)<1) | > 7.30 | > 7.30 |  | C (C represents 1<Kd (JAK3): Kd (RCK)<10)
Cc1cc(Nc2n[nH]c(NCc3ccc(O)cc3)c2C(N)=O)cnc1N1CCN(C)CC1 [reference compound] | > 7.30 | D (D represents Kd(JAK2): Kd (RCK)<1) | > 7.30 | > 7.30 |  | C (C represents 1<Kd (JAK3): Kd (RCK)<10)
C[C@@H]1CN(c2ccc(Nc3n[nH]c(NCc4ccc(O)cc4)c3C(N)=O)cc2Cl)C[C@H](C)O1 [reference compound] | > 7.30 | D (D represents Kd(JAK2): Kd (RCK)<1) | > 7.30 | > 7.30 |  | C (C represents 1<Kd (JAK3): Kd (RCK)<10)
NC(=O)c1c(Nc2ccc(-c3cccnc3)cc2)n[nH]c1NCc1ccc(O)cc1 [reference compound] | > 7.30 | C (C represents 1<Kd (JAK2): Kd (RCK)<10) | > 7.30 | > 7.30 |  | C (C represents 1<Kd (JAK3): Kd (RCK)<10)
NC(=O)c1c(Nc2ccc(N3CCC(N4CCCC4)CC3)nc2)n[nH]c1NCc1ccc(O)cc1 [reference compound] | > 7.30 | D (D represents Kd(JAK2): Kd (RCK)<1) | > 7.30 | > 7.30 |  | C (C represents 1<Kd (JAK3): Kd (RCK)<10)
CN(C)c1ccc(Nc2n[nH]c(NCc3ccc(O)cc3)c2C(N)=O)cc1 [reference compound] | > 7.30 | D (D represents Kd(JAK2): Kd (RCK)<1) | 6.00 to 7.00 | 6.00 to 7.00 |  | C (C represents 1<Kd (JAK3): Kd (RCK)<10)
NC(=O)c1c(Nc2ccc(CN3CCOCC3)cc2)n[nH]c1NCc1ccc(O)cc1 [reference compound] | > 7.30 | D (D represents Kd(JAK2): Kd (RCK)<1) | > 7.30 | > 7.30 |  | D (D represents Kd (JAK3): Kd(RCK)<1)
NC(=O)c1c(Nc2ccc(NC(=O)c3ccc(F)cc3)cc2)n[nH]c1NCc1ccc(O)cc1 [reference compound] | > 7.30 | C (C represents 1<Kd (JAK2): Kd (RCK)<10) | > 7.30 | > 7.30 |  | C (C represents 1<Kd (JAK3): Kd (RCK)<10)
NC(=O)c1c(Nc2ccc(-c3cc[nH]n3)cc2)n[nH]c1NCc1ccc(O)cc1 [reference compound] | > 7.30 | D (D represents Kd(JAK2): Kd (RCK)<1) | > 7.30 | > 7.30 |  | C (C represents 1<Kd (JAK3): Kd (RCK)<10)
COc1ccccc1C(=O)Nc1ccc(Nc2n[nH]c(NCc3ccc(O)cc3)c2C(N)=O)cc1 [reference compound] | > 7.30 | B (B represents 10<Kd(JAK2): Kd (RCK)<100) | > 7.30 | > 7.30 |  | B (B represents 10<Kd (JAK3): Kd (RCK)<100)
COc1cccc(C(=O)Nc2ccc(Nc3n[nH]c(NCc4ccc(O)cc4)c3C(N)=O)cc2)c1 [reference compound] | > 7.30 | C (C represents 1<Kd (JAK2): Kd (RCK)<10) | > 7.30 | > 7.30 |  | B (B represents 10<Kd (JAK3): Kd (RCK)<100)
COc1ccc(C(=O)Nc2ccc(Nc3n[nH]c(NCc4ccc(O)cc4)c3C(N)=O)cc2)cc1 [reference compound] | > 7.30 | B (B represents 10<Kd(JAK2): Kd (RCK)<100) | > 7.30 | > 7.30 |  | B (B represents 10<Kd (JAK3): Kd (RCK)<100)
CC(C)C1CCN(c2ccc(Nc3n[nH]c(NCc4ccc(O)cc4)c3C(N)=O)cc2)CC1 [reference compound] | 6.00 to 7.00 | C (C represents 1<Kd (JAK2): Kd (RCK)<10) | 6.00 to 7.00 | 7.00 to 7.30 |  | C (C represents 1<Kd (JAK3): Kd (RCK)<10)
NC(=O)c1c(Nc2ccc(NC(=O)c3ccc(C(F)(F)F)cc3)cc2)n[nH]c1NCc1ccc(O)cc1 [reference compound] | 6.00 to 7.00 | C (C represents 1<Kd (JAK2): Kd (RCK)<10) | 6.00 to 7.00 | 7.00 to 7.30 |  | C (C represents 1<Kd (JAK3): Kd (RCK)<10)
CC1CCN(c2ccc(Nc3n[nH]c(NCc4ccc(O)cc4)c3C(N)=O)cc2)CC1 [reference compound] | > 7.30 | D (D represents Kd(JAK2): Kd (RCK)<1) | 7.00 to 7.30 | > 7.30 |  | C (C represents 1<Kd (JAK3): Kd (RCK)<10)

Further lines, with some results ahead:

pKd (JAK2) | RCK:JAK2 selectivity ratio (JAK2) | pKd (JAK3; Kd class, JAK3) | pKd [1] | JAK3 Activity Level (JAK3; Kd class, JAK3) | SMILES | RCK:JAK3 selectivity ratio (JAK3)
> 7.30 | D (D represents Kd(JAK2): Kd (RCK)<1) | > 7.30 | > 7.30 |  | NC(=O)c1c(Nc2ccc(-n3cccc3)cc2)n[nH]c1NCc1ccc(O)cc1 [reference compound] | C (C represents 1<Kd (JAK3): Kd (RCK)<10)
> 7.30 | D (D represents Kd(JAK2): Kd (RCK)<1) | > 7.30 | > 7.30 |  | NC(=O)c1c(Nc2ccc(N3CCOCC3)nc2)n[nH]c1NCc1ccc(O)cc1 [reference compound] | C (C represents 1<Kd (JAK3): Kd (RCK)<10)
> 7.30 | D (D represents Kd(JAK2): Kd (RCK)<1) | > 7.30 | > 7.30 |  | NC(=O)c1c(Nc2ccc(-c3ccccn3)cc2)n[nH]c1NCc1ccc(O)cc1 [reference compound] | C (C represents 1<Kd (JAK3): Kd (RCK)<10)
> 7.30 | D (D represents Kd(JAK2): Kd (RCK)<1) |  | > 7.30 | .A | NC(=O)c1c(Nc2ccc(N3CCOCC3)cn2)n[nH]c1NCc1ccc(O)cc1 [reference compound] | D (D represents Kd (JAK3): Kd(RCK)<1)
> 7.30 | D (D represents Kd(JAK2): Kd (RCK)<1) | > 7.30 | > 7.30 |  | Cc1cc(Nc2n[nH]c(NCc3ccc(O)cc3)c2C(N)=O)cnc1N1CCOCC1 [reference compound] | C (C represents 1<Kd (JAK3): Kd (RCK)<10)
> 7.30 | D (D represents Kd(JAK2): Kd (RCK)<1) | > 7.30 | > 7.30 |  | COc1cccc(Nc2n[nH]c(NCc3ccc(O)cc3)c2C(N)=O)c1 [reference compound] | D (D represents Kd (JAK3): Kd(RCK)<1)
> 7.30 | D (D represents Kd(JAK2): Kd (RCK)<1) | > 7.30 | > 7.30 |  | NC(=O)c1c(Nc2ccc(N3CCOCC3=O)cc2)n[nH]c1NCc1ccc(O)cc1 [reference compound] | C (C represents 1<Kd (JAK3): Kd (RCK)<10)
> 7.30 | D (D represents Kd(JAK2): Kd (RCK)<1) | > 7.30 | > 7.30 |  | N#CCc1ccc(Nc2n[nH]c(NCc3ccc(O)cc3)c2C(N)=O)cc1 [reference compound] | C (C represents 1<Kd (JAK3): Kd (RCK)<10)
